Test results as given in patent US7964643B2, “Aryl alkyl sulfonamides as therapeutic agents for the treatment of bone conditions” (The University Court of the University of Aberdeen, priority 2004, dated 2011).

Columns and labels:
osteoclast precursors = assay: Murine co-culture system, osteoclast formation (osteoclast number by TRAcP staining); assay type: cell-based; conditions: Mus musculus, after 72 hours exposure, FIG. 2, read-out: IC50 against osteoclast precursors (FIG. 2)
Protocol: The first model system, the murine co-culture system, studies the formation of osteoclasts from precursors present in the bone marrow. The number of osteoclasts and the amount of dentine resorption was measured.
Osteoclast formation and activity was studied using an adaptation (see, e.g., van't H of & Ralston, 1997) of the osteoblast-bone marrow co-culture assay originally described by Takahashi et al., 1988.
Co-Culture Methods. Co-culture (see, e.g., Van't H of et al., 1997) is a method to study the formation of osteoclasts from their precursors. In this assay, osteoblasts were obtained from the calvaria of 2-3 day old neonatal mice. […] At the end of the culture osteoclasts were identified by TRAcP staining and the resorption activity was measured in the same manner as for rabbit osteoclasts.
Osteoblast Plating. […] The cells were counted and then seeded in a 96 well plated containing dentine slices, at 8×10^3 cells per well in 100 μl medium containing 1000× dilution of stock 1,25-dihydroxyvitamin D3 (final conc. 10 nM/well) to stimulate the expression of RANKL and cultured overnight. […]
More specifically, the femurs and tibia were dissected from 2-3 adult C57/bl6 mice (3-6 months old) and the surrounding tissue was removed. […] The bone marrow cells were counted and then added to the 96 well plate containing the osteoblasts at 2×10^5 cells/well in 50 μL medium. […]

[1] = system: J774 macrophage cell line; assay: Alamar Blue macrophage J774 viability assay; assay type: cell-based; conditions: Mus musculus, J774, 72 h, 72 hours culture with compound, Alamar Blue, read-out: IC50 (J774)
Protocol: Initial screening of candidate compounds was performed using viability assays, on cultures of the macrophage cell line J774, which have been used before as a model system for osteoclast survival (see, e.g., Luckman et al., 1998). The assays are based on the survival of the J774 macrophage cell line; macrophages are closely related to osteoclasts, and contain similar high levels of esterase activity.
J774 cells were plated at 10^4 cells per well in 150 μL αMEM (α Modified Eagle Medium) in 96-well plates and grown overnight. The next day, compounds were added to the cultures, and culture was continued for another 72 hours. At the end of the culture period cell survival was determined using an Alamar Blue assay as previously described (see, e.g., Nociari et al., 1998).
Alamar Blue is an oxidation-reduction sensitive indicator. The dye itself is in the oxidised state, which is blue and non-fluorescent. The dye can accept electrons from reducing species, such as NADPH and FADH, to form a reduced dye species, which is red and fluorescent. Thus the transformation from oxidised form to reduced form can be measured by fluorimetric or colourimetric means. For fluorescence measurements, 530-560 nm excitation and 590 nm emission wavelengths are typically used. For colourimetric measurements, absorbance is measured at 570 nm (reduced form) and 600 nm (oxidised form) and a simple calculation performed to determine the relative quantities of the two species.
A high ratio of the reducing species, NADPH and FADH, to the corresponding oxidised species, NADP and FAD, is an indicator that cells are proliferating and viable. A low ratio indicates cells that are quiescent or non-viable.
Briefly, Alamar Blue (Biosource International) was added undiluted to the each well (1:10 v/v, 15 μL). The plate was incubated at 37° C. for 3-4 hours and the fluorescence was measured at 570 nm, with a 25 nm bandwidth. A high reading indicated cells with normal viability, and a low reading indicates cells that have been damaged and are no longer proliferating normally. The controls gave a high fluorescence reading, indicating a high number of live, healthy cells. A potent test compound gave a low fluorescence reading. The average results for each test compound (n=5) were expressed as a percent (%) of the average control value.
Addition of Compounds. All of the compounds studied were made up as 100 mM solutions in DMSO. These stock solutions were then diluted 100 or 1000× in culture medium (αMEM). From these 1 mM or 100 μM solutions, convenient quantities (3-15 μL) were added directly to the wells so as to give the desired final compound concentration.

IC50 (osteoclast precursors): 200 nM
SMILES: Cc1cc(S(=O)(=O)NCCCCO)ccc1-c1ccc(F)cc1F [ABD-295, 2′,4′-Difluoro-2-methylbiphenyl-4-sulfonic acid-(4-hydroxybutyl)-amide]
IC50 [1]: 800 ± 100 nM
